# US20220323548A1 (priority 2019, published 2022)
# No end group written: not given here. *: point of attachment. undeca‑saccharide = not defined here; Decanoyl = CCCCCCCCCC(=O)*
# Columns and labels:
# [1] = system: rat islets; experiment: Glucose-dependent insulin secretion from rat islets, rat insulin ELISA (part I); assay type: cell-based; details: 28 mM glucose
# Excerpt: Specifically, the pancreas of 8-week-old SD rats (Damul Science) was extracted, and islets were isolated.
# [2] = target: human GLP-1R (Homo sapiens, UniProt P43220); experiment: GLP-1 receptor luciferase reporter assay (part I, glycosylated analogs); assay type: cell-based; details: CV-1 cells transfected with human GLP-1R and CRE, Table 2
# Description: Specifically, the fibroblast cell line CV-1 (1×10^4 cells/ml, Korea Cell Line Bank) was cultured on a 96-well white cell culture plate for 24 hours, and then human GLP-1R (pcDNA3.1_hGLP-1R) and cAMP response element (CRE, pcDNA3.1_hCRE) were added to perform transfection. After 24 hours, the medium was exchanged with a serum-free medium, followed by culture for 16 hours, and then each analog was treated for 6 hours. The expression level of luciferase, a reporter gene, by activated GLP-1R, was quantified by a luminometer, and the results are shown in Table 2.
# [3] = Solubility by HPLC; assay type: physicochemical; details: at 10 mg/ml
# [4] = target: human GLP-1R (human, UniProt P43220 24-463); experiment: cell-based or functional assay
# human GLP-1R (Homo sapiens, UniProt P43220), sequence (P43220 24-463): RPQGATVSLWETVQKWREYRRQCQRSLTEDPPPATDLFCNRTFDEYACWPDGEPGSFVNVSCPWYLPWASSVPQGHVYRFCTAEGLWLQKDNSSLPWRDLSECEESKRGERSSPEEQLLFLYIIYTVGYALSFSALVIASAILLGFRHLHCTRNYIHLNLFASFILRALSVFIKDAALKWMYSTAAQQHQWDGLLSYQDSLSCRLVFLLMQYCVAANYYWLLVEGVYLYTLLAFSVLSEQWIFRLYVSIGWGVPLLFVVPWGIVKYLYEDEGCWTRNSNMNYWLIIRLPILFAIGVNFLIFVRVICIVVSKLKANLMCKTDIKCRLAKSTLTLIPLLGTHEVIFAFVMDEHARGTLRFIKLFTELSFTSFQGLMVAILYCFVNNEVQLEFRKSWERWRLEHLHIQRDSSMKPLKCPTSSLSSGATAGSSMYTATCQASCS
Molecule,Emax (fold induction over basal) [2],"Insulin secretion from rat islets ([1]; 10 nM analog, Table 4)","Insulin secretion from rat islets ([1]; 100 nM analog, Table 4)","Emax (fold induction over basal), CRE-luciferase reporter [4]",also measured
CCCCCCCCCC(=O)NCCCC[C@H](NC(=O)[C@H](CO)NC(=O)[C@@H]1CCCN1C(=O)CNC(=O)CNC(=O)[C@H](CC(N)=O)NC(=O)[C@H](CCCCN)NC(=O)[C@H](CC(C)C)NC(=O)[C@H](Cc1c[nH]c2ccccc12)NC(=O)[C@H](CCC(=O)O)NC(=O)[C@@H](NC(=O)[C@H](Cc1ccccc1)NC(=O)[C@H](CC(C)C)NC(=O)[C@H](CCCNC(=N)N)NC(=O)[C@@H](NC(=O)[C@H](C)NC(=O)[C@H](CSCC(=O)N[C@@H]1O[C@H](CO)[C@@H](O[C@@H]2O[C@H](CO)[C@@H](O[C@@H]3O[C@H](CO[C@H]4O[C@H](CO)[C@@H](O)[C@H](O)[C@@H]4O[C@@H]4O[C@H](CO)[C@@H](O[C@@H]5O[C@H](CO[C@]6(C(=O)OCc7ccccc7)C[C@H](O)[C@@H](NC(C)=O)[C@H]([C@H](O)[C@H](O)CO)O6)[C@H](O)[C@H](O)[C@H]5O)[C@H](O)[C@H]4NC(C)=O)[C@@H](O)[C@H](O[C@H]4O[C@H](CO)[C@@H](O)[C@H](O)[C@@H]4O[C@@H]4O[C@H](CO)[C@@H](O[C@@H]5O[C@H](CO[C@]6(C(=O)OCc7ccccc7)C[C@H](O)[C@@H](NC(C)=O)[C@H]([C@H](O)[C@H](O)CO)O6)[C@H](O)[C@H](O)[C@H]5O)[C@H](O)[C@H]4NC(C)=O)[C@@H]3O)[C@H](O)[C@H]2NC(C)=O)[C@H](O)[C@H]1NC(C)=O)NC(=O)[C@H](CCC(=O)O)NC(=O)[C@H](CCC(=O)O)NC(=O)[C@H](CCSC)NC(=O)[C@H](CCC(N)=O)NC(=O)[C@H](CCCCN)NC(=O)[C@H](CO)NC(=O)[C@H](CC(C)C)NC(=O)[C@H](CC(=O)O)NC(=O)[C@H](CO)NC(=O)[C@@H](NC(=O)[C@H](Cc1ccccc1)NC(=O)[C@@H](NC(=O)CNC(=O)[C@H](CCC(=O)O)NC(=O)CNC(=O)[C@@H](N)Cc1c[nH]cn1)[C@@H](C)O)[C@@H](C)O)C(C)C)[C@@H](C)CC)C(=O)O [AGM-212(E17C-11 sugar)],10.1 ± 1.2 fold induction over basal,–,–,–,"Insulin secretion from rat islets ([1]; 10 nM analog, Table 3): 7895.09 ± 2457.36 pg/mL; Insulin secretion from rat islets ([1]; 100 nM analog, Table 3): 9523.02 ± 2852.08 pg/mL"
CCCCCCCCCC(=O)NCCCC[C@H](NC(=O)[C@H](CO)NC(=O)[C@@H]1CCCN1C(=O)CNC(=O)CNC(=O)[C@H](CSCC(=O)N[C@@H]1O[C@H](CO)[C@@H](O[C@@H]2O[C@H](CO)[C@@H](O[C@@H]3O[C@H](CO[C@H]4O[C@H](CO)[C@@H](O)[C@H](O)[C@@H]4O[C@@H]4O[C@H](CO)[C@@H](O[C@@H]5O[C@H](CO[C@]6(C(=O)OCc7ccccc7)C[C@H](O)[C@@H](NC(C)=O)[C@H]([C@H](O)[C@H](O)CO)O6)[C@H](O)[C@H](O)[C@H]5O)[C@H](O)[C@H]4NC(C)=O)[C@@H](O)[C@H](O[C@H]4O[C@H](CO)[C@@H](O)[C@H](O)[C@@H]4O[C@@H]4O[C@H](CO)[C@@H](O[C@@H]5O[C@H](CO[C@]6(C(=O)OCc7ccccc7)C[C@H](O)[C@@H](NC(C)=O)[C@H]([C@H](O)[C@H](O)CO)O6)[C@H](O)[C@H](O)[C@H]5O)[C@H](O)[C@H]4NC(C)=O)[C@@H]3O)[C@H](O)[C@H]2NC(C)=O)[C@H](O)[C@H]1NC(C)=O)NC(=O)[C@H](CCCCN)NC(=O)[C@H](CC(C)C)NC(=O)[C@H](Cc1c[nH]c2ccccc12)NC(=O)[C@H](CCC(=O)O)NC(=O)[C@@H](NC(=O)[C@H](Cc1ccccc1)NC(=O)[C@H](CC(C)C)NC(=O)[C@H](CCCNC(=N)N)NC(=O)[C@@H](NC(=O)[C@H](C)NC(=O)[C@H](CSCC(=O)N[C@@H]1O[C@H](CO)[C@@H](O[C@@H]2O[C@H](CO)[C@@H](O[C@@H]3O[C@H](CO[C@H]4O[C@H](CO)[C@@H](O)[C@H](O)[C@@H]4O[C@@H]4O[C@H](CO)[C@@H](O[C@@H]5O[C@H](CO[C@]6(C(=O)OCc7ccccc7)C[C@H](O)[C@@H](NC(C)=O)[C@H]([C@H](O)[C@H](O)CO)O6)[C@H](O)[C@H](O)[C@H]5O)[C@H](O)[C@H]4NC(C)=O)[C@@H](O)[C@H](O[C@H]4O[C@H](CO)[C@@H](O)[C@H](O)[C@@H]4O[C@@H]4O[C@H](CO)[C@@H](O[C@@H]5O[C@H](CO[C@]6(C(=O)OCc7ccccc7)C[C@H](O)[C@@H](NC(C)=O)[C@H]([C@H](O)[C@H](O)CO)O6)[C@H](O)[C@H](O)[C@H]5O)[C@H](O)[C@H]4NC(C)=O)[C@@H]3O)[C@H](O)[C@H]2NC(C)=O)[C@H](O)[C@H]1NC(C)=O)NC(=O)[C@H](CCC(=O)O)NC(=O)[C@H](CCC(=O)O)NC(=O)[C@H](CCSC)NC(=O)[C@H](CCC(N)=O)NC(=O)[C@H](CCCCN)NC(=O)[C@H](CO)NC(=O)[C@H](CC(C)C)NC(=O)[C@H](CC(=O)O)NC(=O)[C@H](CO)NC(=O)[C@@H](NC(=O)[C@H](Cc1ccccc1)NC(=O)[C@@H](NC(=O)CNC(=O)[C@H](CCC(=O)O)NC(=O)CNC(=O)[C@@H](N)Cc1c[nH]cn1)[C@@H](C)O)[C@@H](C)O)C(C)C)[C@@H](C)CC)C(=O)O [AGM-212(E17C-11 sugar & N28C-11 sugar)],9.8 ± 1.3 fold induction over basal,11250.94 ± 624.53 pg/mL,22183.40 ± 830.19 pg/mL,–,solubility ([3]; H2O): < 8300 µg/mL; solubility ([3]; PBS): < 9500 µg/mL
CCCCCCCCCC(=O)NCCCC[C@H](NC(=O)[C@H](CO)NC(=O)[C@@H]1CCCN1C(=O)CNC(=O)CNC(=O)[C@H](CC(N)=O)NC(=O)[C@H](CCCCN)NC(=O)[C@H](CC(C)C)NC(=O)[C@H](Cc1c[nH]c2ccccc12)NC(=O)[C@H](CSCC(=O)N[C@@H]1O[C@H](CO)[C@@H](O[C@@H]2O[C@H](CO)[C@@H](O[C@@H]3O[C@H](CO[C@H]4O[C@H](CO)[C@@H](O)[C@H](O)[C@@H]4O[C@@H]4O[C@H](CO)[C@@H](O[C@@H]5O[C@H](CO[C@]6(C(=O)OCc7ccccc7)C[C@H](O)[C@@H](NC(C)=O)[C@H]([C@H](O)[C@H](O)CO)O6)[C@H](O)[C@H](O)[C@H]5O)[C@H](O)[C@H]4NC(C)=O)[C@@H](O)[C@H](O[C@H]4O[C@H](CO)[C@@H](O)[C@H](O)[C@@H]4O[C@@H]4O[C@H](CO)[C@@H](O[C@@H]5O[C@H](CO[C@]6(C(=O)OCc7ccccc7)C[C@H](O)[C@@H](NC(C)=O)[C@H]([C@H](O)[C@H](O)CO)O6)[C@H](O)[C@H](O)[C@H]5O)[C@H](O)[C@H]4NC(C)=O)[C@@H]3O)[C@H](O)[C@H]2NC(C)=O)[C@H](O)[C@H]1NC(C)=O)NC(=O)[C@@H](NC(=O)[C@H](Cc1ccccc1)NC(=O)[C@H](CC(C)C)NC(=O)[C@H](CCCNC(=N)N)NC(=O)[C@@H](NC(=O)[C@H](C)NC(=O)[C@H](CSCC(=O)N[C@@H]1O[C@H](CO)[C@@H](O[C@@H]2O[C@H](CO)[C@@H](O[C@@H]3O[C@H](CO[C@H]4O[C@H](CO)[C@@H](O)[C@H](O)[C@@H]4O[C@@H]4O[C@H](CO)[C@@H](O[C@@H]5O[C@H](CO[C@]6(C(=O)OCc7ccccc7)C[C@H](O)[C@@H](NC(C)=O)[C@H]([C@H](O)[C@H](O)CO)O6)[C@H](O)[C@H](O)[C@H]5O)[C@H](O)[C@H]4NC(C)=O)[C@@H](O)[C@H](O[C@H]4O[C@H](CO)[C@@H](O)[C@H](O)[C@@H]4O[C@@H]4O[C@H](CO)[C@@H](O[C@@H]5O[C@H](CO[C@]6(C(=O)OCc7ccccc7)C[C@H](O)[C@@H](NC(C)=O)[C@H]([C@H](O)[C@H](O)CO)O6)[C@H](O)[C@H](O)[C@H]5O)[C@H](O)[C@H]4NC(C)=O)[C@@H]3O)[C@H](O)[C@H]2NC(C)=O)[C@H](O)[C@H]1NC(C)=O)NC(=O)[C@H](CCC(=O)O)NC(=O)[C@H](CCC(=O)O)NC(=O)[C@H](CCSC)NC(=O)[C@H](CCC(N)=O)NC(=O)[C@H](CCCCN)NC(=O)[C@H](CO)NC(=O)[C@H](CC(C)C)NC(=O)[C@H](CC(=O)O)NC(=O)[C@H](CO)NC(=O)[C@@H](NC(=O)[C@H](Cc1ccccc1)NC(=O)[C@@H](NC(=O)CNC(=O)[C@H](CCC(=O)O)NC(=O)CNC(=O)[C@@H](N)Cc1c[nH]cn1)[C@@H](C)O)[C@@H](C)O)C(C)C)[C@@H](C)CC)C(=O)O [AGM-212(E17C-11 sugar & E24C-11 sugar)],9.7 ± 1.2 fold induction over basal,6763.40 ± 32.83 pg/mL,14650.94 ± 3305.28 pg/mL,–,–
HGEGTFTSDLSKQMEEC(undeca‑saccharide)AVRLFIEWLKNGGPSK(Decanoyl) (reading uncertain) [AGM-212(E17C-11 sugar)],–,–,–,10.1 fold induction over basal,–
HGEGTFTSDLSKQMEEC(undeca‑saccharide)AVRLFIC(undeca‑saccharide)WLKNGGPSK(Decanoyl) (reading uncertain) [AGM-212(E17C-11 sugar & E24C-11 sugar)],–,–,–,9.7 fold induction over basal,–
HGEGTFTSDLSKQMEEC(undeca‑saccharide)AVRLFIEWLKC(undeca‑saccharide)GGPSK(Decanoyl) (reading uncertain) [AGM-212(E17C-11 sugar & N28C-11 sugar)],–,–,–,9.8 fold induction over basal,–
